Measurements from the supplement of paper PMC11061612.

Columns and labels:
Assay in all cases: Bliss excess, mean over the matrix (fraction); higher = more synergy
[1] = system: DMS-53 (Small Cell Lung Carcinoma)
Outline: (§1)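 Cell lines grown in DMEM/F12 or RPMI with 10% FBS were plated in 1536-well plates and held 24 hours at 37°C, 5% CO2 before 72 hours of exposure to two-drug dose matrices, with DMSO typically at 0.2%. CellTiter-Glo 2.0 luminescence gave viability, which was converted to inhibition. Vehicle wells were set to 0 and blank wells to 1. Combination Emax is the second-highest inhibition in the matrix, and Bliss excess is the observed combination effect minus the expected EA + EB − EA·EB, where EA and EB are the single-agent effects.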

[2] = system: HCC1428 (Breast Carcinoma)
Outline: as §1

HCC70 (Breast Carcinoma) = system: HCC70 (Breast Carcinoma)
Outline: as §1

[3] = system: G-402 (Other Solid Carcinomas)
Outline: as §1

[4] = system: huH-1 (Hepatocellular Carcinoma)
Outline: as §1

[5] = system: JIMT-1 (Breast Carcinoma)
Outline: as §1

[6] = system: CGTH-W-1 (Thyroid Gland Carcinoma)
Outline: as §1

AU565 (Breast Carcinoma) = system: AU565 (Breast Carcinoma)
Outline: as §1

EW-7 (Ewing's Sarcoma) = system: EW-7 (Ewing's Sarcoma)
Outline: as §1

[7] = system: HT55 (Colorectal Carcinoma)
Outline: as §1

[8] = system: NCI-H2087 (Lung Adenocarcinoma)
Outline: as §1

WM1552C (Melanoma) = system: WM1552C (Melanoma)
Outline: as §1

[9] = system: 22RV1 (Prostate Carcinoma)
Outline: as §1

[10] = system: CAL-27 (Oral Cavity Carcinoma)
Outline: as §1

[11] = system: HCC1395 (Breast Carcinoma)
Outline: as §1

[12] = system: MDA-MB-436 (Breast Carcinoma)
Outline: as §1

[13] = system: LU-165 (Small Cell Lung Carcinoma)
Outline: as §1

RH-41 (Rhabdomyosarcoma) = system: RH-41 (Rhabdomyosarcoma)
Outline: as §1

[14] = system: EPLC-272H (Other Solid Carcinomas)
Outline: as §1

EW-16 (Ewing's Sarcoma) = system: EW-16 (Ewing's Sarcoma)
Outline: as §1

Row | Structure (SMILES) | Bliss excess [1] | Bliss excess [2] | Bliss excess (HCC70 (Breast Carcinoma)) | Bliss excess [3] | Bliss excess [4] | Bliss excess [5] | Bliss excess [6] | Bliss excess (AU565 (Breast Carcinoma)) | Bliss excess (EW-7 (Ewing's Sarcoma)) | Bliss excess [7] | Bliss excess [8] | Bliss excess (WM1552C (Melanoma)) | Bliss excess [9] | Bliss excess [10] | Bliss excess [11] | Bliss excess [12] | Bliss excess [13] | Bliss excess (RH-41 (Rhabdomyosarcoma)) | Bliss excess [14] | Bliss excess (EW-16 (Ewing's Sarcoma))
1 | CC(=O)c1c(C)c2cnc(Nc3ccc(N4CCNCC4)cn3)nc2n(C2CCCC2)c1=O [Palbociclib] + Cn1cnc2c(F)c(Nc3ccc(Br)cc3Cl)c(C(=O)NOCCO)cc21 [Selumetinib] (first compound max 10 µM, 7x7, partner max 10 µM) | -0.0207 | -0.0235 | 0.055 | 0.0399 | -0.0455 | -0.0436 | -0.036 | 0.0052 | 0.0709 | 0.0782 | -0.0101 | -0.0078 | 0.0328 | -0.0132 | -0.0529 | 0.0157 | -0.0518 | -0.0076 | 0.024 | -0.0095
2 | COc1cccc(OCCCN)c1-c1cc(Nc2cnc(C#N)cn2)n[nH]1 [Prexasertib] + C=CCn1c(=O)c2cnc(Nc3ccc(N4CCN(C)CC4)cc3)nc2n1-c1cccc(C(C)(C)O)n1 [AZD1775] (first compound max 1 µM, partner max 1 µM) | 0.0883 | 0.138 | 0.0723 | 0.0504 | 0.0613 | 0.032 | 0.0632 | 0.0991 | 0.0157 | 0.0259 | 0.0576 | 0.0412 | 0.06 | 0.0945 | 0.0111 | 0.165 | -0.0566 | 0.0677 | -0.0284 | 0.155
3 | COc1cccc(OCCCN)c1-c1cc(Nc2cnc(C#N)cn2)n[nH]1 [Prexasertib] + CCc1c2c(nc3ccc(O)cc13)-c1cc3c(c(=O)n1C2)COC(=O)[C@]3(O)CC [SN-38] (first compound max 1 µM, 7x7, partner max 0.3 µM) | -0.0377 | 0.045 | -0.0259 | -0.0336 | 0.022 | 0.0096 | -0.0566 | -0.0213 | -0.0713 | 0.0552 | -0.0495 | -0.0306 | -0.0649 | 0.0083 | -0.0466 | -0.003 | -0.0618 | 0.0029 | -0.0229 | -0.0002
4 | COc1cccc(OCCCN)c1-c1cc(Nc2cnc(C#N)cn2)n[nH]1 [Prexasertib] + CN(C)CCCOc1ccc(-c2ccc3ncc4c(c3c2)n(C2CCOCC2)c(=O)n4C)cn1 [AZD0156] (first compound max 1 µM, 7x7, partner max 1 µM) | -0.0142 | -0.0703 | -0.0319 | 0.0003 | -0.0422 | 0.0375 | -0.0614 | -0.073 | 0.025 | 0.0444 | -0.0405 | -0.0036 | -0.0213 | -0.0014 | -0.046 | -0.0428 | -0.0723 | -0.0209 | -0.0602 | 0.023
5 | COc1cccc(OCCCN)c1-c1cc(Nc2cnc(C#N)cn2)n[nH]1 [Prexasertib] + C[C@@H]1COCCN1C2=NC(=NC(=C2)C3(CC3)[S@](=N)(=O)C)C4=C5C=CNC5=NC=C4 [AZD6738] (first compound max 1 µM, 7x7, partner max 10 µM) | 0.032 | -0.02 | -0.0133 | -0.0253 | -0.0716 | 0.0026 | -0.0348 | -0.0612 | -0.0437 | 0.0367 | 0.0072 | -0.0372 | 0.0209 | 0.0227 | -0.0399 | 0.0051 | -0.0402 | -0.0423 | -0.0656 | 0.0053
6 | COc1cccc(OCCCN)c1-c1cc(Nc2cnc(C#N)cn2)n[nH]1 [Prexasertib] + Cc1cc2ncnn2cc1Nc1ncc2c(n1)n(C1CCOCC1)c(=O)n2C [AZD7648] (first compound max 1 µM, 7x7, partner max 10 µM) | -0.0344 | -0.0714 | -0.0053 | -0.0602 | -0.0226 | -0.0205 | -0.0455 | 0.0086 | -0.0118 | -0.0102 | 0.008 | -0.0385 | -0.0316 | 0.0291 | -0.0527 | -0.0552 | -0.0422 | -0.0453 | -0.0481 | 0.0156
